Measured values taken from patent EP2433624B1, “Use of buparvaquone for controlling mites parasitising honeybees” (Bimeda International Pharmaceuticals Limited, priority 2010, dated 2012).
Values joined by “and” are separate entries in the source; they are usually repeats but may differ in a detail not shown here. Equal values may be shown once. Read-outs that look alike come from different tables or passages of the source.

Tests used:
[1] = Toxicity of BPQ B to honeybee larvae when fed treated syrup; format: in vivo, Apis mellifera; details: honeybee, in vivo, po, read-out: % Emergence
From the text: (§1) To measure the effect of treatment on developing larvae when fed syrup treated with BPQ powder, BPQ B, dissolved in the solvent (N-methyl pyrollidone) and diluted in an aqueous solution.
(§2) Apidae boxes were used to raise young queens and when virgin queens started to lay an area 6cm x 3cm were marked and missing cells were noted. The miniature colony was fed treated syrup, which was made by dissolving BPQ B powder in solvent, followed by serial dilutions using a sucrose solution (2 parts sugar: 1 part water). The concentrations administered are given below. Two replicates were carried out for the product, while 1 colony (apidae) was used for each of the solvent concentrations.

[2] = test system: honeybee larvae; test: as above; format: in vivo, Apis mellifera; details: for Sealed cells / Young bees emerged: 40 cells
From the text: as §1, §2

[3] = test system: honeybees; test: Bee survival in the test with BPQ B fed in sucrose solution; format: in vivo, Apis mellifera
Method: (§3) Example 6 - Toxicity of BPQ B to Varroa mites on honeybees when fed treated sucrose solution
(§4) A total of 20 newly emerged Varroa infested bees were placed in hoarding cages. The cages were prepared as described in Section 1.0, except that the air vents were reduced in size using parafilm to prevent the Varroa mites escaping during the test period. The mean(±se) number of mites per 20 bees was estimated prior to commencement of the experiment and an additional 5 mites per cage were added. (mean±se = 10.6±0.33). This was carried out by collecting adult female mite from drone pupae, placing them in an eppendorf tube and then releasing them into the cages.
(§5) The treatment solution was made by dissolving BPQ B in solvent, followed by two aqueous serial dilutions producing a concentration of 500µg/mL and 5 µg/mL. From the latter, further serial dilutions were carried with sucrose solution producing the following concentrations: • 0.5µg/mL. (C1-C3) • 0.05µg/mL. (D1-D3) • 0.005µg/mL. (E1-E3) • 0.0005µg/mL. (F1-F3) • 0.00005µg/mL (G1-G3)
Three replicates were established at each concentration plus a control group which were only fed sugar syrup. All cages were placed in the incubator at 32°C and monitored on a daily basis for the number of mites and number of bees knocked down. […]

[4] = test system: Varroa mites; test: Efficacy of BPQ B against Varroa mites on honeybees sprayed with an aqueous solution; format: in vivo; details: sprayed as an aqueous solution, preliminary
Method: (§6) Example 7 - Toxicity of BPQ B to Varroa mites on honeybees when sprayed with an aqueous solution of the active ingredient
To estimate the percentage efficacy of BPQ B at different concentrations when sprayed as an aqueous solution onto adult bees
(§7) A total of 20 newly emerged Varroa infested bees were placed in hoarding cages. The cages were prepared as described in Section 1.0, except that the air vents were reduced in size using parafilm to prevent the Varroa mites escaping during the test period. The mean(±se) number of mites per 20 bees was estimated prior to commencement and an additional 10 mites per cage were added. Mites were collected and introduced as described above. The treatment solution was made by dissolving BPQ B in solvent, followed by two aqueous serial dilutions producing a concentration of 500µg/mL and 5µg/mL. From the latter, further serial dilutions were carried in water producing the following concentrations: • 0.5µg/mL. (C1-C3) • 0.05µg/mL. (D1-D3) • 0.005µg/mL. (E1-E3) • 0.0005µg/mL. (F1-F3) • 0.00005µg/mL (G1-G3)
(§8) Three replicates were established at each concentration plus a control group which were sprayed with water only. All test groups were fed 10mL of 1:1 sucrose:water solution and placed in the incubator at 32°C and monitored on a daily basis for the number of mites and number of bees knocked down. At the end of five day treatment period, the percentage efficacy of the treatment was estimated by treating bees in all cages with Apistan. % efficacy = mites knocked from treatment/total mites (treatment+Apistan)*100 [formula]

[5] = test system: honeybees; test: Survival of bees sprayed with aqueous solutions of BPQ; format: in vivo, Apis mellifera; details: sprayed as an aqueous solution
Method: as §6, §7, §8

[6] = test system: Varroa mites; test: Efficacy of BPQ B against Varroa mites on honeybees fed treated sucrose solution; format: in vivo
Method: as §3
To estimate the percentage efficacy of BPQ at different concentrations in sucrose solution
as §4, §5
as §8, with “only fed sugar syrup.” for “sprayed with water only.”, “cages” for “test groups”, “were” for “were fed 10mL of 1:1 sucrose:water solution and”, “Apistan (Trade Mark of Vita (Europe) Ltd. Apistan contains fluvalinate which is a synthetic pyrethroid.” for “Apistan.”

[7] = 0.00005µg/mL (g1) in sucrose fed to colony
[8] = 0.0005µg/mL (f1-f2) in sucrose fed to colony
[9] = 0.005µg/mL (e1-e2) in sucrose fed to colony
[10] = 0.05µg/mL (d1-d2) in sucrose fed to colony
[11] = 0.5µg/mL (c1-c2) in sucrose fed to colony
[12] = 0.00005µg/mL (g1-g3) in sucrose solution fed to 20 infested bees per cage

Question: With `CC(C)(C)[C@H]1CC[C@H](CC2=C(O)C(=O)c3ccccc3C2=O)CC1` [BPQ B, buparvaquone] as the compound, how does the survival [1, 7] read?
Answer: 96.8%

Question: And the survival [1, 8]?
Answer: 70.3%

Question: And the survival [1, 9]?
Answer: 82.4%

Question: What about the survival [1, 10] of the same compound?
Answer: 81.8%

Question: And the survival [1, 11]?
Answer: 85.7%

Question: And the Sealed cells [2, 7]?
Answer: 30

Question: And the Young bees emerged [2, 7]?
Answer: 30

Question: And the “% Emergence” value [2, 8]?
Answer: 87.5%

Question: And the Sealed cells [2, 8]?
Answer: 32 and 30

Question: And the Young bees emerged [2, 8]?
Answer: 26 and 28

Question: And the “% Emergence” value [2, 9]?
Answer: 86.5%

Question: And the Sealed cells [2, 9]?
Answer: 31 and 37

Question: And the Young bees emerged [2, 9]?
Answer: 28 and 32

Question: And the “% Emergence” value [2, 10]?
Answer: 69.7%

Question: What about the Sealed cells [2, 10] of the same compound?
Answer: 30 and 29

Question: What about the Young bees emerged [2, 10] of the same compound?
Answer: 27 and 23

Question: And the “% Emergence” value [2, 11]?
Answer: 93.9%

Question: What about the Sealed cells [2, 11] of the same compound?
Answer: 32 and 33

Question: What about the Young bees emerged [2, 11] of the same compound?
Answer: 30 and 31

Question: What about the “toxicity for bee larvae” value ([2]; powder dissolved in NMP, diluted in water then sugar solution, any concentration) of the same compound?
Answer: No toxicity

Question: What about the bee survival ([3]; fed in a sucrose solution, day 5) of the same compound?
Answer: no negative effects

Question: And the toxicity for bees ([3]; powder dissolved in NMP, diluted in water then sugar solution, tested over 5 days, any concentration)?
Answer: No toxicity

Question: And the mean minimum efficacy ([4]; treatment d (0.05µg/mL))?
Answer: 28.4%

Question: What about the mean maximum efficacy ([4]; treatment g (0.00005µg/mL)) of the same compound?
Answer: 46.2%

Question: And the “percentage efficacy against the Varroa mite” value [4]?
Answer: low

Question: And the toxicity to bees [5]?
Answer: very low

Question: What about the “daily Varroa mite drop down, Day 4” value [6, 12] of the same compound?
Answer: 0

Question: And the “daily Varroa mite drop down, Day 6” value [6, 12]?
Answer: 0

Question: What about the “daily Varroa mite drop down, Day 2” value ([6]; 0.0005µg/mL (f1-f3) in sucrose solution fed to 20 infested bees per cage) of the same compound?
Answer: 7 and 9

Question: And the “effective in Varroa knockdown” value ([6]; 0.0005µg/mL, fed in sugar solution)?
Answer: > 80%

Question: What about the “daily Varroa mite drop down, Day 5” value ([6]; 0.05µg/mL (d1-d3) in sucrose solution fed to 20 infested bees per cage) of the same compound?
Answer: 1

Question: And the “daily Varroa mite drop down, Day 6” value ([6]; 0.5µg/mL (c1-c3) in sucrose solution fed to 20 infested bees per cage)?
Answer: 1 and 2

Question: What about the maximum efficacy ([6]; fed in a sucrose solution, treatment f (0.0005µg/mL), 5 day treatment) of the same compound?
Answer: approximately 82%

Question: What about the minimum efficacy ([6]; fed in a sucrose solution, treatment g (0.00005µg/mL), 5 day treatment) of the same compound?
Answer: 43.8%
